Data: US7157430B2, “(Substituted)acyl dipeptidyl inhibitors of the ICE/CED-3 family of cysteine proteases” (Idun Pharmaceuticals, Inc., priority 1998, dated 2007)

What was measured:
Assay type in all cases: biochemical
Settings in all cases: continuous assay 60 min, reaction initiated by adding enzyme
MCH-5 = MCH-5 (Homo sapiens, UniProt Q14790); test: Dissociation constant Ki and irreversible rate constant k3 for irreversible inhibitors, Mch5
Source text: (§1) For the irreversible inhibition of a ICE/ced-3 Family Protease enzyme with a competitive irreversible inhibitor; using the model represented by the following formulas: […]
(§2) The product formation at time t may be expressed as:
(§3) [formula] where E, I, EI and E-I denote the active enzyme, inhibitor, non-covalent enzyme-inhibitor complex and covalent enzyme-inhibitor adduct, respectively. The Ki value is the overall dissociation constant of the reversible binding steps, and k3 is the irreversible rate constant. The [S] and Ks values are the substate concentration and dissociation constant of the substrate bound to the enzyme, respectively. [E]^T is the total enzyme concentration.
(§4) The above equations were used to determine the Ki and k3 values of a given inhibitor bound to a ICE/ced-3 family protease. Thus, a continuous assay was run for sixty minutes at various concentrations of the inhibitor and the substrate. The assay was formulated essentially the same as described above for generating the data in Table 1, except that the reaction was initiated by adding the enzyme to the substrate-inhibitor mixture. The Ki and k3 values were obtained by simulating the product AMC formation as a function of time according to Equation 1.
(§5) The reference compound for this assay was Cbz-ValAlaAsp-CH2F and the values are denoted in Table 2 as “Reference”. The Ki values in Table 2 are in micromolar (μM). The k3/Ki values are in moles^−1 seconds^−1 (M^−1s^−1).

MCH-2 = biological target: T1, MCH-2 (Homo sapiens, UniProt P55212); test: Dissociation constant Ki and irreversible rate constant k3 for irreversible inhibitors, Mch2
T1 sequence (P55212 24-179 limits assumed): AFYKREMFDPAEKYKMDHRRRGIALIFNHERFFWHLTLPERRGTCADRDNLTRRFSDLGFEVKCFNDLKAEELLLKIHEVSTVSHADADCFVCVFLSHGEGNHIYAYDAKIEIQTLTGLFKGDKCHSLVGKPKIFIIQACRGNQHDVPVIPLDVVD
T1 sequence (P55212 194-293 limits assumed): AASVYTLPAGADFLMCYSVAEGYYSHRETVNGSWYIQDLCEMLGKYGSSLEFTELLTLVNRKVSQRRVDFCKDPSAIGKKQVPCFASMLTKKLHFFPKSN
Source text: as §1, §2, §3, §4, §5

mICE = biological target: T2, mICE (Mus musculus, UniProt P29452); test: Dissociation constant Ki and irreversible rate constant k3 for irreversible inhibitors, ICE
T2 sequence (P29452 123-296 limits assumed): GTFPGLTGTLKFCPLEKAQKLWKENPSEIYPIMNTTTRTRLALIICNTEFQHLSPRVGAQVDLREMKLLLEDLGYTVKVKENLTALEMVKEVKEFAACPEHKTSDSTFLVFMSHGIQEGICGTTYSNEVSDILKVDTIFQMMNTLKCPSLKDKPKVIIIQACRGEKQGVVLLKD
T2 sequence (P29452 315-402 limits assumed): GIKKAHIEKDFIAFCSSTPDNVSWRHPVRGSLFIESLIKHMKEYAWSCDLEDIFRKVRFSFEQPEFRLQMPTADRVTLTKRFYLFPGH
Source text: as §1, §2, §3, §4, §5

CPP32 = biological target: T3, CPP32 (Homo sapiens, UniProt P42574); test: Dissociation constant Ki and irreversible rate constant k3 for irreversible inhibitors, CPP32
T3 sequence (P42574 29-175 limits assumed): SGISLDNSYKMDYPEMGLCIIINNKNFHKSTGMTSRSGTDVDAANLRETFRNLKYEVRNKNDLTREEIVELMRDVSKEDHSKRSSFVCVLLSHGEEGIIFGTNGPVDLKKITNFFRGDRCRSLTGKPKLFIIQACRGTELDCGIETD
T3 sequence (P42574 176-277 limits assumed): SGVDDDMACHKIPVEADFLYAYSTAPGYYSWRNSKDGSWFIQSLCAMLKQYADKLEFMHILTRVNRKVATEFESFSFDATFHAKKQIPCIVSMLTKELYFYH
Source text: as §1, §2, §3, §4, §5

Chain of MCH-5 (Q14790 217-374 limits assumed, species assumed): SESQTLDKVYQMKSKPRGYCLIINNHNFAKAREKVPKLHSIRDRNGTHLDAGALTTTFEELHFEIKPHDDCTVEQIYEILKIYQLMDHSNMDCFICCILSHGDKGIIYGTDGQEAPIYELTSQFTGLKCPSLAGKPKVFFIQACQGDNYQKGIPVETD
Chain of MCH-5 (Q14790 385-479 limits assumed, species assumed): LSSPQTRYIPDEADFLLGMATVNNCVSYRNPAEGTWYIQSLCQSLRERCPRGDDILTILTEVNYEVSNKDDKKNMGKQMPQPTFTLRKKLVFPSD

SMILES	Ki (MCH-5) [nM]	MCH-5 k3/Ki (MCH-5)	Ki (MCH-2) [nM]	MCH-2 k3/Ki (MCH-2)	Ki (mICE) [nM]	mICE k3/Ki (mICE)	CPP32 k3/Ki (CPP32)	Ki (CPP32) [nM]
CC(C)[C@H](NC(=O)COc1cccc2ccccc12)C(=O)N[C@@H](CC(=O)O)C(=O)COc1cc(F)c(F)cc1F [Example 77]	1500	670 M⁻¹ s⁻¹	526	630 M⁻¹ s⁻¹	262	11,500 M^−1s^−1	24,400 M^−1s^−1	123
CC(C)[C@H](NC(=O)COc1cccc2ccccc12)C(=O)N[C@@H](CC(=O)O)C(=O)COc1c(F)cc(F)cc1F [Example 78]	202	9,080 M^−1s^−1	81	5,140 M^−1s^−1	137	20,700 M^−1s^−1	114,000 M^−1s^−1	38
CC(C)[C@H](NC(=O)COc1cccc2ccccc12)C(=O)N[C@@H](CC(=O)O)C(=O)COc1c(F)c(F)cc(F)c1F [Example 79]	34	30,200 M^−1s^−1	6	78,900 M^−1s^−1	91	77,500 M^−1s^−1	268,000 M^−1s^−1	42
CC(C)[C@H](NC(=O)COc1cccc2ccccc12)C(=O)N[C@@H](CC(=O)O)C(=O)COc1c(F)c(F)c(F)c(F)c1F [Example 80]	146	8,040 M^−1s^−1	23	13,600 M^−1s^−1	926	4,700 M^−1s^−1	56,600 M^−1s^−1	99
CC(C)[C@H](NC(=O)COc1cccc2ccccc12)C(=O)N[C@@H](CC(=O)O)C(=O)COP(=O)(c1ccccc1)c1ccccc1 [Example 103]	25	59,300 M^−1s^−1	38	39,700 M^−1s^−1	63	143,000 M^−1s^−1	351,000 M^−1s^−1	38
CC(C)[C@H](NC(=O)COc1cccc2ccccc12)C(=O)N[C@@H](CC(=O)O)C(=O)COP(C)(=O)c1ccccc1 (stereo partly drawn) [Example 104]	59	15,500 M^−1s^−1	37	50,200 M^−1s^−1	133	50,600 M^−1s^−1	151,000 M^−1s^−1	54
CC(C)[C@H](NC(=O)COc1cccc2ccccc12)C(=O)N[C@@H](CC(=O)O)C(=O)COP(C)(C)=O [Example 105]	160	3,700 M^−1s^−1	233	6,090 M^−1s^−1	413	18,000 M^−1s^−1	44,900 M^−1s^−1	341
CCCCCCP(=O)(OCC(=O)[C@H](CC(=O)O)NC(=O)[C@@H](NC(=O)COc1cccc2ccccc12)C(C)C)c1ccccc1 (stereo partly drawn) [Example 106]	134	10,500 M^−1s^−1	80	52,900 M^−1s^−1	167	42,500 M^−1s^−1	155,000 M^−1s^−1	48
CC(C)[C@H](NC(=O)COc1cccc2ccccc12)C(=O)N[C@@H](CC(=O)O)C(=O)COP(=O)(Cc1ccccc1)c1ccccc1 (stereo partly drawn) [Example 107]	48	27,800 M^−1s^−1	21	187,000 M^−1s^−1	66	106,000 M^−1s^−1	424,000 M^−1s^−1	14
CC(C)[C@H](NC(=O)COc1cccc2ccccc12)C(=O)N[C@@H](CC(=O)O)C(=O)COP(C)(=O)c1ccc(F)cc1 (stereo partly drawn) [Example 108]	105	9,890 M^−1s^−1	37	60,400 M^−1s^−1	147	37,900 M^−1s^−1	140,000 M^−1s^−1	41
CCCCCCP(=O)(OCC(=O)[C@H](CC(=O)O)NC(=O)[C@@H](NC(=O)COc1cccc2ccccc12)C(C)C)c1ccc(F)cc1 (stereo partly drawn) [Example 109]	219	4,070 M^−1s^−1	119	16,800 M^−1s^−1	453	15,500 M^−1s^−1	48,300 M^−1s^−1	136
CC(C)[C@H](NC(=O)COc1cccc2ccccc12)C(=O)N[C@@H](CC(=O)O)C(=O)COP(C)(=O)c1cccc2ccccc12 (stereo partly drawn) [Example 110]	43	18,800 M^−1s^−1	15	150,000 M^−1s^−1	59	64,900 M^−1s^−1	272,000 M^−1s^−1	35
Cc1cc(OCC(=O)[C@H](CC(=O)O)NC(=O)[C@@H](NC(=O)COc2cccc3ccccc23)C(C)C)cc(=O)o1 [Example 111]	2870	170 M⁻¹ s⁻¹	2160	230 M⁻¹ s⁻¹	308	6,500 M^−1s^−1	21,900 M^−1s^−1	220
CC(C)[C@H](NC(=O)COc1cccc2ccccc12)C(=O)N[C@@H](CC(=O)O)C(=O)COc1c(-c2ccccc2)oc2ccccc2c1=O [Example 115]	4670	0 M⁻¹ s⁻¹	54	0 M⁻¹ s⁻¹	324	8,740 M^−1s^−1	127,000 M^−1s^−1	46
CC(C)[C@H](NC(=O)COc1cccc2ccccc12)C(=O)N[C@@H](CC(=O)O)C(=O)COc1ccnc(C(F)(F)F)n1 [Example 121]	276	3,200 M^−1s^−1	120	5,150 M^−1s^−1	242	24,800 M^−1s^−1	114,000 M^−1s^−1	47
